Results taken from US8603493B2, “Carbosilane dendrimers, preparation method thereof and use of same” (Dendrico, S.L., priority 2005, dated 2013).
Entries after “also recorded” stand apart in the source; their conditions may differ.

Assays:
[1] = Dendrimer-drug binding test (polyacrylamide gel delay), methotrexate; settings: dendrimer 100 μM, charge ratios 1+/1− to 8+/1−, 37° C., 1 hour
Method: (§1) The drugs chosen to perform the tests, all with at least one negative charge at physiological pH, were: • Methotrexate (sodium salt): • 1 charge (−) • Supplying laboratory: Almirall • Presentation: 25 mg/ml solution • Excipients: NaCl, NaOH, HCl, double-distilled H2O • Heparin (sodium salt) • Several charges (−) • Supplying laboratory: Rovi • Presentation: 10 mg/ml solution (1000 U) • Excipients: methyl p-oxybenzoate, propyl p-oxybenzoate, NaCl, double-distilled H2O • Insulin (recombinant human insulin) • 4 charges (−) • Supplying laboratory: Novo Nordisk • Product trade name: Actrapid • Presentation: 3.5 mg/ml solution (100 U) • Excipients: ZnCl2, HCl, NaOH, double-distilled H2O
(§2) The determination of the bond and complex formation between the dendrimer and the drug was performed by evaluating the delay in the polyacrylamide gel of the dendrimer bound to drug with respect to the free dendrimer: • Complex formation: It is performed in a final volume of the mixture of 30 μl, which is the maximum volume to load in the gel. To do this, one starts from the necessary quantity of dendrimer that provides a perfectly identifiable band by staining with silver nitrate in the gel once the electrophoresis has been carried out: 20 μl of a 100 μM solution, which corresponds to […] molecules. The drug is added in the 10 μl at different concentrations to produce the chosen (+) and (−) charge ratios, also determining the quantity of drug molecules present in the mixture. An incubation of said mixture was performed at 37° C. during 1 hour to give time for a more thermodynamically stable complex to form, although more time may be needed for its formation. Each complex is performed in duplicate. • Electrophoresis and gel staining: The gels used were 7.5% polyacrylamide/bisacrylamide, prepared with 1.5M Tris pH 8.8. Each electrophoresis was carried out at 90 volts during 4 hours, after which the gel was stained with silver nitrate and photographed. […]

[2] = Dendrimer-drug binding test (polyacrylamide gel delay), heparin; settings: dendrimer 100 μM, heparin 10, 1, 0.5, 0.1 U, 37° C., 1 hour
Method: as §1, §2

[3] = biological target: T1, Insulin (recombinant human insulin) (Homo sapiens, UniProt P01308); test: Dendrimer-drug binding test (polyacrylamide gel delay), insulin; settings: dendrimer 100 μM, insulin 1, 0.5, 0.1, 0.05 U, 37° C., 1 hour
T1 construct: Despite having its molecular weight (5825 g/mol) and establishing an average of 4 (−) charges; purchased Novo Nordisk Actrapid (trade name; no catalogue number given)
Method: as §1, §2

U87-MG cells [4] = test: Proliferation of U-87-MG cells incubated with dendrimers (MTS); format: cell-based; settings: 1 μM, 5 μM and 10 μM, 3 days
Method: (§3) The tests were performed with the dendrimers NN (2G-[Si(O(CH2)2N(Me)(CH2)2NMe3^+I^−)]8 (26)) and NN16 (2G-[Si(O(CH2)2N^+(Me)2(CH2)2NMe3^+2I^−)]8 (36)). The transfection tests were performed with the anti-rev RF ODN (SEQ ID NO:2). The culture medium was DMEM+10% bovine foetal serum.
(§4) Different experiments were performed, one with SK-N-MC cells and another with U-87-MG cells, which studied the effect of the dendrimers on the proliferation of said lines. For this, 7000 cells/well were plated of the corresponding in a 96-well dish. […] As positive proliferation control, cells were incubated with 20 μg/ml of LPS and, as positive death induction control, cells were used incubated with 7% DMSO. As negative control untreated cells were used.

SK-N-MC cells [5] = test: Proliferation of SK-N-MC cells incubated with dendrimers (MTS); format: cell-based; settings: 3 days
Method: as §3, §4

U87-MG cells [6] = test: Toxicity in U-87-MG cells: tests with MTT
Method: A test with U-87-MG cells was performed, wherein the effect of the dendrimers on the viability of said lines was studied at different times. To do this, 15000 (24 hour incubations), 7000 (3 day incubations) or 1500 (7 day incubations) cells per well were plated in 96-well plates. The cells were incubated with different concentrations (1 μM, 5 μM and 10 μM) either NN dendrimer or NN16 dendrimer, during 24 hours, 3 days and 7 days. […] Two different positive controls were also used: cells treated with 7% DMSO and cells treated with 1% Triton X-100.
In the case of Superfect, three doses were tested, the optimum dose recommended by the manufacturer (2.5 μl), a lower dose (1.25 μl) and another higher dose (5 μl). With regard to Polyfect, specifically designed for adherent cells, the three doses tested were: optimum dose (0.6 μl), lower dose (0.3 μl) and higher dose (1.2 μl).
After each corresponding incubation time, a test was performed with MTT analogous to that described in Example 38. At the absorbance value obtained in the untreated cells (C−) it was given the value of 1 and the moiety of the absorbencies produced was used to refer to it.

U87-MG cells [7] = test: Toxicity in U-87-MG cells: LDH in the supernatant; settings: 24 hours
From the text: The concentrations and volumes of each one of these compounds were the same used in the test performed with MTT. The commercial kit Cytotoxicity Detection KitPLUS (LDH), from Roche Applied Science was used to determine lactate dehydrogenase, following the manufacturer's instructions.

SK-N-MC cells [8] = test: Toxicity in SK-N-MC cells: test with MTT; format: cell-based; settings: 24 hours, 1, 5, 10 μM
U87-MG cells [9] = test: Transfection of U87-MG cells mediated by dendrimers (flow cytometry); format: cell-based; settings: dendriplex with anti-rev oligonucleotide 250 nM, − charge/+ charge ratio 1:8, 24 hours
Method: (§5) 100000 cells/well were plated of the corresponding cell line in a 24-well plate with 500 μl of medium.
(§6) Dendriplexes were formed with dendrimers NN and NN16 and the fluorescent anti-rev antisense oligonucleotide in a total volume of 75 μl of medium without serum, wherein the anti-rev oligonucleotide was mixed at a concentration 250 nM and the corresponding dendrimer in different proportions, so that different − charge/+ charge ratios were obtained: 1:1, 1:2, 1:4 and 1:8. The mixture was incubated during half an hour at ambient temperature and then it was added to the corresponding well to incubate the cells with dendriplexes.
(§7) After 24 hours of incubation, the cells were removed from the well, they were washed twice with PBS, they were incubated for 1 minute with acid glycine to remove the possible moieties of dendriplexes which may have remained adhered on the cell membrane, and a final wash was performed with PBS. Finally, the cells were resuspended in 500 μl of PBS and the quantity of fluorescent oligonucleotide inside the cell was quantified by flow cytometry.

SK-N-MC cells [10] = test: Transfection of SK-N-MC cells mediated by dendrimers (flow cytometry); format: cell-based; settings: dendriplex with anti-rev oligonucleotide 250 nM, − charge/+ charge ratio 1:4, 24 hours
Method: as §5, §6, §7

T1 sequence (P01308 25-54 limits assumed): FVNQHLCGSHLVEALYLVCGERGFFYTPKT
T1 sequence (P01308 90-110 limits assumed): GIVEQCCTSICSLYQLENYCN

Compound: C[N+](C)(C)CC[N+](C)(C)CCO[Si](C)(C)CCC[Si](C)(CCC[Si](CCC[Si](C)(CCC[Si](C)(C)OCC[N+](C)(C)CC[N+](C)(C)C)CCC[Si](C)(C)OCC[N+](C)(C)CC[N+](C)(C)C)(CCC[Si](C)(CCC[Si](C)(C)OCC[N+](C)(C)CC[N+](C)(C)C)CCC[Si](C)(C)OCC[N+](C)(C)CC[N+](C)(C)C)CCC[Si](C)(CCC[Si](C)(C)OCC[N+](C)(C)CC[N+](C)(C)C)CCC[Si](C)(C)OCC[N+](C)(C)CC[N+](C)(C)C)CCC[Si](C)(C)OCC[N+](C)(C)CC[N+](C)(C)C [NN16, 2G-[Si(O(CH2)2N^+(Me)2(CH2)2NMe3^+2I^−)]8]
- dendrimer-methotrexate complex formation (delay in gel) [1]: complex is formed
- dendrimer-heparin complex formation (delay in gel) [2]: complex is formed
- dendrimer-insulin complex formation (delay in gel) [3]: complex is formed
- effect on cell proliferation (MTS) (U87-MG cells [4]): neither induce proliferation nor cell death
- effect on cell proliferation (MTS) (SK-N-MC cells [5]; 1 μM and 5 μM): do not produce toxicity nor cell proliferation
- effect on cell proliferation (MTS) (SK-N-MC cells [5]; 10 μM): toxic
- viability (MTT), untreated cells (C−) = 1 (U87-MG cells [6]; 3 days, any one of the three concentrations (1, 5, 10 μM)): ~0.8
- viability (MTT), untreated cells (C−) = 1 (U87-MG cells [6]; 7 days, 10 μM): 0.7
- cytotoxicity (LDH), comparison (U87-MG cells [7]): greater cytotoxicity as their concentration increases; also recorded: less toxic than NN
- toxicity (MTT), comparison (SK-N-MC cells [8]): least toxicity
- percentage of cells transfected (U87-MG cells [9]): 97.8%
- percentage of cells transfected (maximum transfection) (SK-N-MC cells [10]): 82.3%
